Series [1] relates to virus HIV-1 (souche HTLV-IIIB). In words: anti-HIV activity in HIV-infected MT4 cells (MTT method). The class given is cell-based. Conditions: for activité (compared with AZT, in words): comparison with AZT. On the procedure: (§1) Les produits (AZT, AZT-5′ hémisuccinyl et AZT 5′-leucyl) à différentes concentrations ont été mis en présence de cellules MT4 (4 X 10⁴ cellules par puits de microtray) infectées ou non avec 100 CCID₅₀ de virus HIV-1 (souche HTLV-IIIB). La CCID₅₀ représente la quantité de virus à rajouter pour obtenir une infection de 50 % des cellules (dose infectieuse de cellules en culture 50).
(§2) Après cinq jours d'incubation à 37°C, le nombre de cellules vivantes a été déterminé par la méthode au MTT, basée sur la réduction par les cellules vivantes du 3′-(4, 5-diméthylthiazol-2-yl)-2,5-diphényltétrazoliumbromide, jaune, en formazan, bleu. L'activité antivirale et la cytotoxicité sont exprimées sous forme de ED₅₀ et de CD₅₀. La CD₅₀ représente la dose qui tue 50 % des cellules non infectées et la ED₅₀ représente la dose qui protège 50 % des cellules de l'infection virale.
(§3) La même expérience que celle décrite ci-avant (exemple 9.1)) a été réalisée, mais en présence de thymidine 250 µM et de 2′déoxycytidine 500 µM. En effet l'AZT entre en compétition avec la thymidine au niveau des enzymes de phosphorylation qui vont le transformer en AZT triphosphate (AZT TP) qui est la forme active du produit. Un excès de thymidine réduit donc très fortement l'activité de l'AZT, ce qui se traduit par une ED₅₀ plus élevée. Par conséquent, si le dérivé de l'AZT doit son activité à la libération d'AZT qui à son tour est phosphorylé en AZT TP, un excès de thymidine aura également pour effet d'élever la ED₅₀ du dérivé. La thymidine étant cytotoxique à la concentration utilisée, il est nécessaire de rajouter de la 2′déoxycytidine pour empêcher cette toxicité.
(§4) Les protocoles expérimentaux sont ceux décrits à l'exemple 9 3.1) et 9 3).

The test system of the next series is cellules MT4. In words: cytotoxicity on non-infected MT4 cells (MTT method). The format is cell-based. As to conditions: for toxicité (compared with AZT, in words): comparison with AZT. As for the experimental part:
as §1, §2
as §3, with “En” for “La même expérience que celle décrite ci-avant (exemple 9.1)) a été réalisée, mais en présence de thymidine 250 µM et de 2′déoxycytidine 500 µM. En”
as §4

A short description of series [2]: in vivo toxicity, intraperitoneal, 5-day-old NMRI mice. Details: species or system souriceaux NMRI. Conditions: AZT, i.p. As for the experimental part:
L'AZT et son dérivé 5′hémisuccinyl ont été administrés par voie infra-péritonéale à de souriceaux NMRI âgés de 5 jours (100 µl/g de poids corporel). Les animaux ont été contrôlés tous les jours selon 2 critères : survie et poids pendant 25 jours.
Les résultats sont repris au tableau 9. Les souriceaux traités n'ont pas montre de différence significative dans la prise de poids par rapport aux contrôles. Tableau 9

For series [3], the system named is virus MSV Moloney sarcoma virus. Kind of series: in vivo activity in MSV-infected NMRI mice (survival, tumour appearance). On the set-up: species or system souris NMRI. As for the experimental part: L'AZT et ses dérivés selon l'invention ont été testés in vivo chez la souris NMRI (souriceaux de 2 jours) infectée par le virus MSV Moloney sarcoma virus). La drogue est adminitrée i.p. pendant 5 jours dans un volume de 25 µl/g de poids corporel. Le virus est inoculé dans la cuisse gauche de l'animal deux heures après la première administration de drogue. Les animaux sont contrôlés tous les jours selon trois critères : survie, apparition de la tumeur et poids (toxicité) pendant 50 jours. Les résultats sont repris au tableau 7 et dans les figures 8 à 11. [formula]
On entend par temps médian de survie le temps où la moitié des souris sont encore vivantes. [formula] Tableau 7

The subject of a further series is HIV. As to conditions: patients at AIDS stage, estimate; cited from earlier work.
Series [4] has as its system virus HIV-1 (souche HTLV-IIIB). Kind of series: viral antigen assay in HIV-infected human peripheral blood lymphocytes. The format is cell-based. Conditions: day 14 of culture. An excerpt: Les lymphocytes ont été extraits d'un concentré plaquettaire par séparation sur gradient de Ficoll et élimination des adhérentes. Après 3 jours de stimulation par la phytohémaglutinine, ils ont été transférés dans un milieu additionné d'interleukine-2 (IL-2) est infectés par le virus HIV-1 (souche HTLV-IIIB). L'AZT et son dérivé 5′ hémisuccinate à différentes concentrations ont été rajoutés aux cellules au moment de l'infection.
Trois jours après l'infection, le milieu a été remplacé par du milieu frais additionné d'IL-2, contenant les produits aux concentrations désirées pour la moitié des cellules, et ne contenant plus de produit pour l'autre moitié. Ensuite, le milieu des cellules a été remplacé à moitié par du milieu frais additionné d'IL-2, contenant ou non les produits aux concentrations désirées, tous les 3 à 4 jours.
La multiplication du virus a été suivie par dosage des antigènes viraux dans les surnageants de culture (Innotest HIV-Organon Teknika).

The subject of series [5] is virus HIV-1 (souche HTLV-IIIB). In words: viral antigen expression in HIV-infected HUT-78 cells (indirect immunofluorescence, laser cytofluorescence). The format is cell-based. An excerpt:
Les produits (AZT et AZT-5′ hémisuccinyl) à différentes concentrations ont été mis en présence de cellules HUT-78 infectées par le virus HIV-1 (souche HTLV-IIIB) à une multiplicité d'infection de 0.4. Tous les quatre jours, 3/4 du milieu ont été remplacés par du milieu frais. Après douze jours, l'expression des antigènes viraux a été mesurée par immunofluorescence indirecte à l'aide d'un sérum anti-HIV-I positif, et par cytofluorescence laser, tel que décrit par Pauwels et al. J. Virol. Meth. 16, 171-185 (1987).
Des résultats sont exprimés dans le tableau 3 en ED₅₀ et en pourcentage d'effet protecteur selon la formule : [formula] TABLEAU 3

[6] abbreviates: tableau 6, MT-4, with thymidine(250 µM) + déoxy-cytidine (500 µM).
Where [7] appears, read: tableau 6, MT-4, without thymidine / déoxy-cytidine.
The mark [8] stands for this setting: listed as dérive 5′-valine de l'AZT.
Setting [9] is: tableau 4, MT-4, without thymidine / 2′déoxycytidine.
Setting [10] is: tableau 2, non-infected MT4 cells, 5 days at 37°C, dose that kills 50 % of cells.

Where “and” joins values, the source holds several entries; their conditions need not be identical. Equal values may be shown once.

Regarding `Cc1cn([C@H]2C[C@H](N=[N+]=[N-])[C@@H](COC(=O)[C@@H](NC(=O)OC(C)(C)C)C(C)C)O2)c(=O)[nH]c1=O` [AZT 5′tBoc valyl, 5′-O-(Boc-L-valyl)-3′-azido-3′-deoxythymidine], the “activité (compared with AZT, in words)” value in series [1] is reported as “activités comparables”. Also, the results for the ED₅₀ in series [1] (setting [6]) and in series [1] (setting [7]) were 11.002 µM and 0.0731 µM, respectively. Also, the SI in series [1] (setting [6]) amounted to 33; in series [1] (setting [7]) it was 5740. Also, the “toxicité (compared with AZT, in words)” value in the series with cellules MT4 is listed as “moins toxiques que l'AZT”. Further, the CD₅₀ with cellules MT4 (setting [6]) turned out to be 358 µM; in the series with cellules MT4 (setting [7]), 420 µM.
With `Cc1cn([C@H]2C[C@H](N=[N+]=[N-])[C@@H](COC(=O)[C@@H](N)C(C)C)O2)c(=O)[nH]c1=O` [AZT 5′valyl, 5′-O-(L-valyl)-3′-azido-3′-deoxythymidine], the “activité (compared with AZT, in words)” value in series [1] (listed as AZT-5′valine) is “deux foix plus élevée que celle de l'AZT”; in series [1] (setting [8]), “plus actif que l'AZT”. Also, the ED₅₀ stood at 0.0987 µM in series [1] (setting [6]) and 0.0007 µM in series [1] (setting [7]). Further, the SI in series [1] (setting [6]) turned out to be 386; in series [1] (setting [7]), 5083. In addition, the “toxicité (compared with AZT, in words)” value in the series on cellules MT4 (listed as AZT-5′valine) is “comparable à celle de ce dernier”; in the series with cellules MT4 (setting [8]) it was “comparable à celle de l'AZT”. Besides, the CD₅₀ in the series with cellules MT4 (setting [6]) is given as 38.16 µM; in the series with cellules MT4 (setting [7]) it was 3.65 µM.
Regarding `Cc1cn([C@H]2C[C@H](N=[N+]=[N-])[C@@H](CO)O2)c(=O)[nH]c1=O` [AZT, 3′azido-3′déoxythymidine, reference compound], the “Survivants au jour 25” value in series [2] (dose 1 g/kg poids corporel (équivalent AZT 1)) and in series [2] (dose 2 g/kg poids corporel (équivalent AZT 2)) was 0% each time. In addition, in series [1] (de l'ordre de), the “indice de sélectivité” value is ~6000. Moreover, the ED₅₀ is reported as 0,0018 µM in series [1] (setting [9]); 0.0018 µM in series [1] (setting [7]); 0.03 µM in series [4] (durée d'administration 3 jours); 0.023 µM in series [4] (durée d'administration 14 jours); “ED₅₀ AZT = 2 µM” in series [5] (HUT-78 cells, multiplicity of infection 0.4, day 12). For the same molecule, the SI in series [1] (setting [9]) and in series [1] (setting [7]) was 2780 in each case. In addition, the “% ILS” value in series [3] (AZT 5 mg/kg/jour i.p. 5 days) is given as 26.8%; in series [3] (AZT 25 mg/kg/jour i.p. 5 days), 74.8%; in series [3] (AZT 125 mg/kg/jour i.p. 5 days), 74.8%. In addition, the “% ITL” value in series [3] (AZT 5 mg/kg/jour i.p. 5 days) stood at 62.8%; in series [3] (AZT 25 mg/kg/jour i.p. 5 days), 190%; in series [3] (AZT 125 mg/kg/jour i.p. 5 days) it was 137%. Besides, the “Temps moyen d'apparition de la tumeur” value in series [3] (AZT 5 mg/kg/jour i.p. 5 days) turned out to be 6.5 jours; in series [3] (AZT 125 mg/kg/jour i.p. 5 days) it was 10.2 jours. Further, the “Temps moyen de survie” value in series [3] (AZT 5 mg/kg/jour i.p. 5 days) is 11.3 jours; in series [3] (AZT 25 mg/kg/jour i.p. 5 days), >19.8 jours; in series [3] (AZT 125 mg/kg/jour i.p. 5 days) it was >23.3 jours. The “Temps médian d'apparition de la tumeur” value in series [3] (AZT 5 mg/kg/jour i.p. 5 days) turned out to be 7.3 jours; in series [3] (AZT 25 mg/kg/jour i.p. 5 days), 13 jours; in series [3] (AZT 125 mg/kg/jour i.p. 5 days) it was 10.6 jours. The “Temps médian de survie” value in series [3] (AZT 5 mg/kg/jour i.p. 5 days) is on record as 11.6 jours; in series [3] (AZT 25 mg/kg/jour i.p. 5 days), 16 jours; in series [3] (AZT 125 mg/kg/jour i.p. 5 days), 16 jours. Besides, the “augmentation du temps de survie des patients traités” value with HIV was ~18 mois. Moreover, the CD₅₀ in the series with cellules MT4 (setting [10]) is 15.8 µM and 14.2 µM; in the series with cellules MT4 (setting [9]), 5.06 µM; in the series with cellules MT4 (setting [7]), 5,06 µM. Besides, the “Pourcentage d'effet protecteur” value is on record as 36% in series [5] (HUT-78, day 12, concentration 0.2 µM); 45% in series [5] (HUT-78, day 12, concentration 1 µM); 65% in series [5] (HUT-78, day 12, concentration 5 µM).
For the molecule `CC(=O)N[C@@H](CC(=O)OC[C@H]1O[C@@H](n2cc(C)c(=O)[nH]c2=O)C[C@@H]1N=[N+]=[N-])C(=O)O` [AZT-5′hémiaspartyl (isomère majeur), 5′-O-(N-acétyl-L-hemiaspartyl)-3′-azido-3′ déoxythymidine], the “activité (compared with AZT, in words)” value in series [1] is reported as “activités comparables”. Moreover, in series [1] (comparison with the hémisuccinyl derivative), the “indice de sélectivité (in words)” value was “comparable à celui du dérivé hémisuccinyl”. The figures for the ED₅₀ in series [1] (setting [6]) and in series [1] (setting [7]) were 4.000 µM and 0.0161 µM, respectively. Moreover, the SI in series [1] (setting [6]) is 19; in series [1] (setting [7]), 4046. Moreover, the “toxicité (compared with AZT, in words)” value in the series with cellules MT4 is “moins toxiques que l'AZT”. Besides, the figures for the CD₅₀ with cellules MT4 (setting [6]) and in the series on cellules MT4 (setting [7]) were 74.83 µM and 65.06 µM, respectively.
`Cc1cn([C@H]2C[C@H](N=[N+]=[N-])[C@@H](COC(=O)[C@@H](N)CC(C)C)O2)c(=O)[nH]c1=O` [AZT-5′leucyl, 5′O-(L-leucyl)-3′-azido-3′déoxythymidine]: the ED₅₀ result in series [1] (tableau 2, MT4 cells infected with 100 CCID₅₀ HIV-1, 5 days at 37°C, dose that protects 50 % of cells) is listed as “.005 µM”. In series [1] (tableau 2, indice de sélectivité = CD₅₀ sur ED₅₀, MT4 cells), the SI is recorded as 5080. Also, in series [1] (tableau 2, ratio within the same experiment, MT4 cells), the “SI dérivé/SI AZT” value worked out at 2.1. This molecule returned a CD₅₀ in the series on cellules MT4 (setting [10]) of 25.4 µM.

The record behind these values is EP0357495A2, “3'Azido-3'-deoxythymidine (AZT) derivatives active against the AIDS virus” (IRE-CELLTARG S.A., priority 1988, dated 1990).
